Data from ChEMBL document CHEMBL1201862, “PubChem BioAssay data set” (2004).
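A five-concentration, 48-hour dose response in 96-well plates underlies each endpoint, interpolated linearly between surrounding concentrations. Abbreviation: GI50, concentration required for 50% inhibition of growth.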 Activity calls are given as the source filed them. Rule as the data show it: active = GI50 up to about 1.1 µM and inactive = higher.

Tests used:
Experiment in all cases: NCI-60 cell line screen, 48 h
MOLT-4 = tested on: MOLT-4
SK-OV-3 = tested on: SK-OV-3
RPMI-8226 = tested on: RPMI-8226
Hs-578T = tested on: Hs-578T
UO-31 = tested on: UO-31
MDA-MB-231 = tested on: MDA-MB-231
MCF7 = tested on: MCF7
PC-3 = tested on: PC-3
NCI-H522 = tested on: NCI-H522
SN12C = tested on: SN12C
Malme-3M = tested on: Malme-3M
LOX IMVI = tested on: LOX IMVI
OVCAR-5 = tested on: OVCAR-5
COLO 205 = tested on: COLO 205
KM12 = tested on: KM12
SK-MEL-5 = tested on: SK-MEL-5
SK-MEL-28 = tested on: SK-MEL-28
UACC-62 = tested on: UACC-62
A549 = tested on: A549
NCI-H23 = tested on: NCI-H23

Measured: GI50

CCSC1=N/C(=C\c2ccco2)C(Nc2ccc(C)cc2)=N1
inactive: MOLT-4 > 100 µM | SK-OV-3 > 100 µM | RPMI-8226 > 100 µM | Hs-578T > 100 µM | UO-31 > 100 µM | MDA-MB-231 > 100 µM | MCF7 > 100 µM | PC-3 > 100 µM | NCI-H522 > 100 µM | SN12C > 100 µM | Malme-3M 52 µM | LOX IMVI > 100 µM | OVCAR-5 > 100 µM | COLO 205 > 100 µM | KM12 > 100 µM | SK-MEL-5 > 100 µM | SK-MEL-28 > 100 µM | UACC-62 > 100 µM | A549 > 100 µM | NCI-H23 > 100 µM
